The structures appear in SMILES notation. Numbered stars: 1 amine (or outer) side, 2 acyl side, 3 side chain; on linkers, the order of the positions; unused ones are H or OH. Bridge positions count the residues as written; N and C are the ends. Square brackets hold non-standard residues; d marks the D form. Peptide text beside a SMILES is read from it. X4 = O=C([C@H](CCCCNCc1ccccc1)N[*:1])[*:2]; sY = N[C@@H](Cc1ccc(OS(=O)(=O)O)cc1)C(=O)O; X3 = O=C([C@H](CCNCc1ccccc1)N[*:1])[*:2]; X2 = O=C([C@H](CNCc1ccccc1)N[*:1])[*:2]; Dap = NC[C@H](N)C(=O)O; βAla = NCCC(=O)O

This assay addresses T1, Cholecystokinin receptor type A (Homo sapiens, UniProt P32238).
T1 sequence (P32238 whole entry): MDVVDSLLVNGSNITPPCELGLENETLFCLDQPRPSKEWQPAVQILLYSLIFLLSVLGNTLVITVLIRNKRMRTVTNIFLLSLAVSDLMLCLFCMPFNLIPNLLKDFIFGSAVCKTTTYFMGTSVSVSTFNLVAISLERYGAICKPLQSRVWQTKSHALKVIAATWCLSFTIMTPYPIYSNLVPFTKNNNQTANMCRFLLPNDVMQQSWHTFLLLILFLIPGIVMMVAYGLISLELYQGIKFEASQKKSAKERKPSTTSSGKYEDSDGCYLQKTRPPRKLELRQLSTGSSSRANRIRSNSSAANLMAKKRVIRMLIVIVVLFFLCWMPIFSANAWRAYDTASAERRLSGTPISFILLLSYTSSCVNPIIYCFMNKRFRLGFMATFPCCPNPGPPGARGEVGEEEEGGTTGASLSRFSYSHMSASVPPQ
Nature of the assay: Displacement of [111In]DTPA-Glu-Gly-[Tyr27(SO3H)]-CCK8 from human CCK1 receptor expressed in A431 cells. The format is cell-based, A-431.

Consider `CSCC[C@@H]1NC(=O)[C@H](Cc2c[nH]c3ccccc23)NC(=O)[C@@H](NC(=O)[C@H](CCSC)NC(=O)[C@H](Cc2ccc(OS(=O)(=O)O)cc2)NC(=O)[C@@H](N)CC(=O)O)CNC(=O)CNC(=O)[C@H](CNCc2ccccc2)NC(=O)[C@H](CC(=O)O)NC1=O` (H-D[sY]M[Dap]WMD[X2]G; lactam 4-C), for which the IC50 (in general, the concentration that gives 50% inhibition) is 7.46 µM. In other words, the single-digit micromolar range.

As for `CSCC[C@@H]1NC(=O)[C@H](Cc2c[nH]c3ccccc23)NC(=O)[C@@H](NC(=O)[C@H](CCSC)NC(=O)[C@H](Cc2ccc(OS(=O)(=O)O)cc2)NC(=O)[C@@H](N)CC(=O)O)CNC(=O)CNC(=O)[C@H](CCCCNCc2ccccc2)NC(=O)[C@H](CC(=O)O)NC1=O` (H-D[sY]M[Dap]WMD[X4]G; lactam 4-C), the IC50 is 24.7 µM.

`CSCC[C@@H]1NC(=O)[C@H](Cc2c[nH]c3ccccc23)NC(=O)[C@@H](NC(=O)[C@H](CCSC)NC(=O)[C@H](Cc2ccc(OS(=O)(=O)O)cc2)NC(=O)[C@@H](N)CC(=O)O)CNC(=O)[C@H](CCCCN)NC(=O)[C@H](Cc2ccccc2)NC(=O)[C@H](CC(=O)O)NC1=O` (H-D[sY]M[Dap]WMDFK; lactam 4-C) came in with an IC50 of 15 µM.

In turn, `CSCC[C@@H]1NC(=O)[C@H](Cc2c[nH]c3ccccc23)NC(=O)[C@@H](NC(=O)[C@H](CCSC)NC(=O)[C@H](Cc2ccc(OS(=O)(=O)O)cc2)NC(=O)[C@@H](N)CC(=O)O)CNC(=O)CCNC(=O)[C@H](Cc2ccccc2)NC(=O)[C@H](CC(=O)O)NC1=O` (H-D[sY]M[Dap]WMDF[βAla]; lactam 4-C) displayed a concentration for half-maximal inhibition (IC50) of 26.7 µM.

In turn, `CSCC[C@@H]1NC(=O)[C@H](Cc2c[nH]c3ccccc23)NC(=O)[C@@H](NC(=O)[C@H](CCSC)NC(=O)[C@H](Cc2ccc(OS(=O)(=O)O)cc2)NC(=O)[C@@H](N)CC(=O)O)CNC(=O)CNC(=O)[C@H](CCNCc2ccccc2)NC(=O)[C@H](CC(=O)O)NC1=O` (H-D[sY]M[Dap]WMD[X3]G; lactam 4-C) returned an IC50 of 6.94 µM.

`CSCC[C@@H]1NC(=O)[C@H](Cc2c[nH]c3ccccc23)NC(=O)[C@@H](NC(=O)[C@H](CCSC)NC(=O)[C@H](Cc2ccc(OS(=O)(=O)O)cc2)NC(=O)[C@@H](N)CC(=O)O)CNC(=O)CNC(=O)[C@H](Cc2ccccc2)NC(=O)[C@H](CC(=O)O)NC1=O` (H-D[sY]M[Dap]WMDFG; lactam 4-C) returned an IC50 of 26.3 µM.

As for `CSCC[C@@H]1NC(=O)[C@H](Cc2c[nH]c3ccccc23)NC(=O)[C@@H](NC(=O)[C@H](CCSC)NC(=O)[C@H](Cc2ccc(OS(=O)(=O)O)cc2)NC(=O)[C@@H](N)CC(=O)O)CNC(=O)CNC(=O)[C@H](C)NC(=O)[C@H](CC(=O)O)NC1=O` (H-D[sY]M[Dap]WMDAG; lactam 4-C), the IC50 was found to be 7.2 µM. Against the preceding compound, the IC50 is about 3.7-fold lower.

`CSCC[C@H](NC(=O)[C@H](Cc1ccc(O)cc1)NC(=O)[C@H](CC(=O)O)NC(=O)CNC(=O)CC[C@@H](C(=O)O)N(CCN(CC(=O)O)CC(=O)O)CCN(CC(=O)O)CC(=O)O)C(=O)NCC(=O)N[C@@H](Cc1c[nH]c2ccccc12)C(=O)N[C@@H](CCSC)C(=O)N[C@@H](CC(=O)O)C(=O)N[C@@H](Cc1ccccc1)C(N)=O` gave an IC50 (a-431) of 0.032 µM.

In turn, `CSCC[C@@H]1NC(=O)[C@H](Cc2c[nH]c3ccccc23)NC(=O)[C@@H](NC(=O)[C@H](CCSC)NC(=O)[C@H](Cc2ccc(OS(=O)(=O)O)cc2)NC(=O)[C@@H](N)CC(=O)O)CNC(=O)[C@H](C)NC(=O)[C@H](Cc2ccccc2)NC(=O)[C@H](CC(=O)O)NC1=O` (H-D[sY]M[Dap]WMDFA; lactam 4-C) had an IC50 above 1000 µM.
